In patent publication US20220273807A1, “CONJUGATES FOR USE IN METHODS OF TREATING CANCER” (AstraZeneca AB, priority 2018, published 2022):

How the values were obtained:
[1] = test system: NCI-H1048 tumor cells; experiment: Human small cell lung cancer tumor model (NCI-H1048), single agent and combination; type: in vivo, C.B.-17 SCID female mice; conditions: AZD2014 15 mg/kg daily (qd), oral; p<0.05
Procedure: Compound 1 was formulated in citrate/phosphate buffer pH 5.0 containing 4.5% w/v glucose and dosed intravenously (iv) in a volume of 5 ml/kg. AZD2014 was formulated in 0.5% hydroxypropyl methylcellulose/0.1% Tween 80 and dosed oral in a volume of 10 ml/kg 5×10^6 NCI-H1048 tumor cells were injected subcutaneously in the right flank of C.B.-17 SCID female mice in a volume of 0.1 mL containing 50% matrigel. Tumor volume (measured by caliper) was calculated using the formula: length (mm) x width (mm)^2×0.52. For efficacy studies, mice were randomized based on tumor volume and growth inhibition was assessed by comparison of the differences in tumor volume between control and treated groups. Dosing began when mean tumor volume reached approximately 124 mm^3.

[2] = test system: RS4; 11 cells; experiment: Efficacy in RS4:11 xenograft model; type: in vivo, mouse; conditions: Compound A 5 mg/kg
Procedure: Preparation of Compound PBS formulations for dosinq RS4:11 efficacy study: The appropriate amounts of Compound 1 were weighed into a volumetric flask. 10 mL Dulbecc's Phosphate Buffered Saline (PBS) was added and formulations were then stirred until the compound dissolved entirely.
Formulation of Compound A in 30% w/v HP-β-CD
30% w/v HP-β-CD vehicle was prepared. 3 g HP-β-CD (Roquette Kleptose, parenteral grade) was weighed into a 10 mL volumetric flask and 8 mL WFI added and stirred (or sonicated) to dissolve. Once dissolved the volume was made up to 10 mL with WFI.
The appropriate amount of Compound A was weighed into a 10 mL volumetric flask. 8 mL of 30% w/v HP-β-CD vehicle was then added and the formulation stirred. 1M MSA was added dropwise until the pH was reduced to about 2. The formulation was then stirred until the compound dissolved entirely. The pH was measured and adjusted to pH 4, dropwise using 1M MSA or NaOH. […] The final pH was measured and recorded and the formulation filtered through a 0.22 uM filter prior to administration. […]
On specific day, for each treated group, calculate Inhibition value by formula: Inhibition %=(CG−TG)*100/(CG−1), in which “CG” means the geometric mean of rtv of the control group and “TG” means the Geometric Mean of Relative Tumor Volume (rtv) of the treated group. “CG” should use the corresponding control group of the treated group when calculated. […]

[3] = test system: OCI-Ly10 tumor cells; experiment: Human DLBCL xenograft model (OCI-Ly10), single agent and combination; type: in vivo, C.B.-17 SCID female mice; conditions: single agent acalabrutinib 12.5 mg/kg bid po
Procedure: 5×10^6 OCI-Ly10 tumor cells were injected subcutaneously in the right flank of C.B.-17 SCID female mice in a volume of 0.1 mL containing 50% matrigel. Compound 1 was formulated in citrate/phosphate buffer pH 5.0, diluted 1 to 10 with 5% glucose containing 1% w/v Kolliphor HS15, and dosed as a weekly intravenous (iv) administration at a volume of 5 mL/kg at a dose of 103 mg/kg (30 mg/kg API). Acalabrutinib was formulated in 0.5% hydroxypropyl methyl cellulose/0.2% Tween 80, and dosed twice a day (bid) as an oral (po) administration at a volume of 10 mL/kg at a dose of 12.5 mg/kg. Tumor volumes (measured by caliper), animal body weight, and tumor condition were recorded twice weekly for the duration of the study. The tumor volume was calculated using the formula: length (mm) x width (mm)^2×0.52. For efficacy studies, growth inhibition from the start of treatment was assessed by comparison of the differences in tumor volume between control and treated groups. Dosing began when mean tumor size reached approximately 166 mm3.

CNC(=O)c1cccc(-c2ccc3c(N4CCOC[C@@H]4C)nc(N4CCOC[C@@H]4C)nc3n2)c1 [AZD2014, vistusertib]
anti-tumor activity, TGI [1]: 84%

CN(CCO)CC[C@H](CSc1ccccc1)Nc1ccc(S(=O)(=O)NC(=O)c2ccc(N3CCC([C@@H](O)c4ccccc4-c4ccc(Cl)cc4)CC3)cc2)cc1S(=O)(=O)C(F)(F)F [Compound A]
% Inhibition Day (47) [2]: >100% | % Regression Day(47) [2]: 90%

CC#CC(=O)N1CCC[C@H]1c1nc(-c2ccc(C(=O)Nc3ccccn3)cc2)c2c(N)nccn12 [acalabrutinib]
tumor growth inhibition (TGI) [3]: ~58%
